Values belong to the compound of their own block, whether it stands above or below them. Active and inactive are the calls of the source. No cut-off for these calls is given here.
How the values were obtained:
SK-MEL-147 [1] = experiment: Cytotoxicity against human SK-MEL-147 cells assessed as reduction in cell viability at 50 and 100 uM after 24 hrs by MTT assay; format: functional, cell-based
Jurkat [2] = experiment: Cytotoxicity against human Jurkat cells assessed as reduction in cell viability at 50 and 100 uM after 24 hrs by MTT assay; format: functional, cell-based
SK-MEL-147 [3] = experiment: Cytotoxicity against human SK-MEL-147 cells assessed as reduction in cell viability after 24 hrs by MTT assay; format: functional, cell-based; conditions: SK-MEL-147, 24 h
Jurkat [4] = experiment: Cytotoxicity against human Jurkat cells assessed as reduction in cell viability after 24 hrs by MTT assay; format: functional, cell-based
[5] = Inhibition of Leishmania mexicana rCPB3.0 using Z-FR-AMC as substrate by spectrofluorometric analysis
[6] = Inhibition of Leishmania mexicana rCPB3.0 H84Y mutant using Z-FR-AMC as substrate by spectrofluorometric analysis
Cysteine proteinase B [7] = biological target: T1, Cysteine proteinase B (Leishmania mexicana, UniProt P36400); experiment: Inhibition of Leishmania mexicana rCPB2.8 using Z-FR-AMC as substrate by spectrofluorometric analysis
T1 sequence (P36400 whole entry): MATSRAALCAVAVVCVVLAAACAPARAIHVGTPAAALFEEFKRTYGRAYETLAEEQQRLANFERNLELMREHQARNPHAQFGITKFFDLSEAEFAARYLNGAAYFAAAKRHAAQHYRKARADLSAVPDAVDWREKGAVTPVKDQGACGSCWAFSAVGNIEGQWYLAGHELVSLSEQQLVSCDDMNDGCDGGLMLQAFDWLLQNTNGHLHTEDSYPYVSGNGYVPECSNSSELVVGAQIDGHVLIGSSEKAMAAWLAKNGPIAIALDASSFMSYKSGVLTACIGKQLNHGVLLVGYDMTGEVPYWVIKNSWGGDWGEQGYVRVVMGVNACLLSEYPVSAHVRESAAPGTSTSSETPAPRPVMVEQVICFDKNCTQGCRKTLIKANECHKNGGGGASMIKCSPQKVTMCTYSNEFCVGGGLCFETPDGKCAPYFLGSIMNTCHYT

Cysteine proteinase B [8] = biological target: T1, Cysteine proteinase B; experiment: Inhibition of Leishmania mexicana rCPB2.8 assessed as inhibition constant using Z-FR-AMC as substrate preincubated for 10 mins followed by substrate addition by Lineweaver-Burk double reciprocal plot analysis
[9] = Inhibition of Leishmania mexicana rCPB3.0 assessed as inhibition constant using Z-FR-AMC as substrate preincubated for 10 mins followed by substrate addition by Lineweaver-Burk double reciprocal plot analysis
[10] = Inhibition of Leishmania mexicana rCPB3.0 H84Y mutant assessed as inhibition constant using Z-FR-AMC as substrate preincubated for 10 mins followed by substrate addition by Lineweaver-Burk double reciprocal plot analysis
[11] = biological target: Cysteine proteinase B (Leishmania mexicana) (UniProt P36400); experiment: Inhibition of Leishmania mexicana rCPB2.8 assessed as inhibition constant for uncompetitive inhibition using Z-FR-AMC as substrate preincubated for 10 mins followed by substrate addition by Lineweaver-Burk double reciprocal plot analysis
Chain of Cysteine proteinase B (Leishmania mexicana) (P36400 126-443 limits assumed): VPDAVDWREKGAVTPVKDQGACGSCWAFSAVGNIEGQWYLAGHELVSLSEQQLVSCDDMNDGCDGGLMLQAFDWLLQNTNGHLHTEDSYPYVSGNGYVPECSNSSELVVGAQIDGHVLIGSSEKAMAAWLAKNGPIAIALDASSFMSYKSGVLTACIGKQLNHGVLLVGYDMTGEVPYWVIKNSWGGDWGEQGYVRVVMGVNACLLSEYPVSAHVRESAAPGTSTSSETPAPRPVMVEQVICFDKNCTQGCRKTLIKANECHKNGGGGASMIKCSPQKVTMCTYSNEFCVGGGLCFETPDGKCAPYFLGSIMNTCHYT

Leishmania mexicana [12] = experiment: Inhibition of Leishmania mexicana rCPB3.0 assessed as inhibition constant for uncompetitive inhibition using Z-FR-AMC as substrate preincubated for 10 mins followed by substrate addition by Lineweaver-Burk double reciprocal plot analysis
Leishmania mexicana [13] = experiment: Inhibition of Leishmania mexicana rCPB3.0 H84Y mutant assessed as inhibition constant for uncompetitive inhibition using Z-FR-AMC as substrate preincubated for 10 mins followed by substrate addition by Lineweaver-Burk double reciprocal plot analysis
SK-MEL-147 [14] = experiment: Cytotoxicity against human SK-MEL-147 cells assessed as reduction in cell viability at EC50 concentration preincubated for 1 hr in presence of GSH measured after 24 hrs by MTT assay; format: functional, cell-based
SK-MEL-147 [15] = experiment: Induction of apoptosis in human SK-MEL-147 cells assessed as early apoptotic cells at 20 uM after 24 hrs by Annexin V-FITC/propidium iodide staining based flow cytometry; format: functional, cell-based
SK-MEL-147 [16] = experiment: Induction of apoptosis in human SK-MEL-147 cells assessed as late apoptotic cells at 20 uM after 24 hrs by Annexin V-FITC/propidium iodide staining based flow cytometry; format: functional, cell-based
SK-MEL-147 [17] = experiment: Induction of apoptosis in human SK-MEL-147 cells assessed as necrotic cells at 20 uM after 24 hrs by Annexin V-FITC/propidium iodide staining based flow cytometry; format: functional, cell-based
SK-MEL-147 [18] = experiment: Induction of apoptosis in human SK-MEL-147 cells assessed as mitochondrial membrane potential dissipation after 24 hrs by TMRM staining based fluorescence microscopic method; format: functional, cell-based
SK-MEL-147 [19] = experiment: Induction of apoptosis in human SK-MEL-147 cells assessed as increase in reactive oxygen species generation by CM-H2DCFDA staining based flow cytometric analysis; format: functional, cell-based
SK-MEL-147 [20] = experiment: Induction of apoptosis in human SK-MEL-147 cells assessed mitochondrial permeabilization after 24 hrs by mitotracker green staining based microscopic analysis; format: functional, cell-based
SK-MEL-147 [21] = experiment: Cytotoxicity against human SK-MEL-147 cells assessed as reduction in cell viability at EC50 concentration preincubated for 1 hr in presence of DTT measured after 24 hrs by MTT assay; format: functional, cell-based
SK-MEL-147 [22] = experiment: Cytotoxicity against human SK-MEL-147 cells assessed as reduction in cell viability at EC50 concentration preincubated for 1 hr in presence of N-acetyl cysteine measured after 24 hrs by MTT assay; format: functional, cell-based
SK-MEL [23] = experiment: Cytotoxicity against human SK-MEL-147 cells assessed as reduction in cell viability at EC50 concentration preincubated for 1 hr in presence of EGTA measured after 24 hrs by MTT assay; format: functional, cell-based
SK-MEL [24] = experiment: Cytotoxicity against human SK-MEL-147 cells assessed as reduction in cell viability at EC50 concentration preincubated for 1 hr in presence of BAPTA measured after 24 hrs by MTT assay; format: functional, cell-based
SK-MEL-147 [25] = experiment: Cytotoxicity against human SK-MEL-147 cells assessed as reduction in cell viability at EC50 concentration preincubated for 1 hr in presence of Boc-D-FMK measured after 24 hrs by MTT assay; format: functional, cell-based
SK-MEL-147 [26] = experiment: Cytotoxicity against human SK-MEL-147 cells assessed as reduction in cell viability at EC50 concentration preincubated for 1 hr in presence of E-64 measured after 24 hrs by MTT assay; format: functional, cell-based
Rattus norvegicus [27] = species on record: Rattus norvegicus; experiment: Induction of mitochondrial permeabilization in rat liver mitochondria assessed as mitochondrial transmembrane potential dissipation by rhodamine-123 dye based spectrofluorometer analysis; format: functional
Rattus norvegicus [28] = species on record: Rattus norvegicus; experiment: Induction of mitochondrial permeabilization in rat liver mitochondria assessed as calcium efflux by calcium green based spectrofluorometer analysis; format: functional
Rattus norvegicus [29] = species on record: Rattus norvegicus; experiment: Induction of mitochondrial permeabilization in rat liver mitochondria assessed as mitochondrial transmembrane potential dissipation in presence of DTT by rhodamine-123 dye based spectrofluorometer analysis; format: functional
Rattus norvegicus [30] = species on record: Rattus norvegicus; experiment: Induction of mitochondrial permeabilization in rat liver mitochondria assessed as mitochondrial transmembrane potential dissipation in presence of CsA by rhodamine-123 dye based spectrofluorometer analysis; format: functional
Rattus norvegicus [31] = species on record: Rattus norvegicus; experiment: Induction of mitochondrial permeabilization in rat liver mitochondria assessed as mitochondrial transmembrane potential dissipation in presence of ADP by rhodamine-123 dye based spectrofluorometer analysis; format: functional
Rattus norvegicus [32] = species on record: Rattus norvegicus; experiment: Induction of mitochondrial permeabilization in rat liver mitochondria assessed as calcium efflux in presence of DTT by calcium green based spectrofluorometer analysis; format: functional
Rattus norvegicus [33] = species on record: Rattus norvegicus; experiment: Induction of mitochondrial permeabilization in rat liver mitochondria assessed as calcium efflux in presence of CsA by calcium green based spectrofluorometer analysis; format: functional
Rattus norvegicus [34] = species on record: Rattus norvegicus; experiment: Induction of mitochondrial permeabilization in rat liver mitochondria assessed as calcium efflux in presence of ADP by calcium green based spectrofluorometer analysis; format: functional
SK-MEL-147 [35] = experiment: Induction of apoptosis in human SK-MEL-147 cells assessed as increase in BAX expression at 20 uM after 24 hrs by western blotting analysis; format: functional, cell-based
SK-MEL-147 [36] = experiment: Induction of apoptosis in human SK-MEL-147 cells assessed as effect on BCL-2 protein expression at 20 uM after 24 hrs by western blotting analysis; format: functional, cell-based
SK-MEL-147 [37] = experiment: Cytotoxicity against human SK-MEL-147 cells assessed as reduction in cell viability in presence of BCL2 inhibitor venetoclax; format: functional, cell-based
Cathepsin B = Cathepsin B (Homo sapiens, UniProt P07858); experiment: Inhibition of cathepsin B (unknown origin) using Z-FR-AMC as substrate by spectrofluorometric analysis
Procathepsin L = Procathepsin L (Homo sapiens, UniProt P07711); experiment: Inhibition of cathepsin L (unknown origin) using Z-FR-AMC as substrate by spectrofluorometric analysis
Chain of Procathepsin L (P07711 whole entry): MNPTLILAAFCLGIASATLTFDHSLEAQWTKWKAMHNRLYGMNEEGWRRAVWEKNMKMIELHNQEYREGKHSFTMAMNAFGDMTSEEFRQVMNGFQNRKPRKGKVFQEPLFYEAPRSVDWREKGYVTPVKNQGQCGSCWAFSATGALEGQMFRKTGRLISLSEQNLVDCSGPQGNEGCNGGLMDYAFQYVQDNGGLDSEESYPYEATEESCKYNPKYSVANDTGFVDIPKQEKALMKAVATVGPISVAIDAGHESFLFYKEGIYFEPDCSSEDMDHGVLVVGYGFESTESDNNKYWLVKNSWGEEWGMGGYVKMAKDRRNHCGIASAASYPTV

Compound: CCOC(=O)c1cc([Se]c2ccc3cc(OC)ccc3c2)c2cc(Cl)ccc2n1
- Activity (SK-MEL-147 [1]): Active
- Activity (Jurkat [2]): Active
- EC50 (SK-MEL-147 [3]): 16.2 µM
- EC50 (Jurkat [4]): 29.2 µM
- IC50 [5]: 6.35 µM
- IC50 [6]: 7.25 µM

Compound: COc1ccc([Se]c2cc(-c3ccc(O)cc3)nc3ccc(OC)cc23)cc1
- Activity (SK-MEL-147 [1]): Active
- Activity (Jurkat [2]): Active
- EC50 (SK-MEL-147 [3]): 59.2 µM
- EC50 (Jurkat [4]): 41.5 µM
- IC50 (Cysteine proteinase B [7]): 3.6 µM
- IC50 [5]: 5.78 µM
- IC50 [6]: 12.4 µM
- Ki (Cysteine proteinase B [8]): 21.7 µM
- Ki [9]: 18.5 µM
- Ki [10]: 18.3 µM
- alphaKi [11]: 22.1 µM
- alphaKi (Leishmania mexicana [12]): 18.6 µM
- alphaKi (Leishmania mexicana [13]): 18.4 µM

Compound: CCOC(=O)c1cc([Se]Cc2ccccc2)c2cc(OC)ccc2n1
- Activity (SK-MEL-147 [1]): Active
- Activity (Jurkat [2]): Active
- EC50 (SK-MEL-147 [3]): 40.7 µM
- EC50 (Jurkat [4]): 20.8 µM

Compound: CCOC(=O)c1cc([Se]c2ccc3cc(OC)ccc3c2)c2cc(OC)ccc2n1
- Activity (SK-MEL-147 [1]): Active
- Activity (Jurkat [2]): Active
- EC50 (SK-MEL-147 [3]): 30.8 µM
- EC50 (Jurkat [4]): 31.3 µM
- IC50 [6]: 8.44 µM

Compound: COc1ccc2nc(-c3c(C)cccc3C)cc([Se]c3ccccc3)c2c1
- Activity (SK-MEL-147 [1]): Active
- Activity (Jurkat [2]): Active
- EC50 (SK-MEL-147 [3]): 37.3 µM
- EC50 (Jurkat [4]): 26.9 µM
- IC50 (Cysteine proteinase B [7]): 12.9 µM
- IC50 [5]: 7.44 µM
- IC50 [6]: 20.4 µM

Compound: COc1ccc2nc(-c3c(Cl)cccc3Cl)cc([Se]c3ccccc3)c2c1
- Activity (SK-MEL-147 [1]): Active
- Activity (Jurkat [2]): Active
- EC50 (SK-MEL-147 [3]): > 150 µM
- EC50 (Jurkat [4]): 17 µM

Compound: CCOC(=O)c1cc([Se]c2ccccc2C)c2cc(OC)ccc2n1
- Activity (SK-MEL-147 [1]): Active
- Activity (Jurkat [2]): Active
- EC50 (SK-MEL-147 [3]): 38.9 µM
- EC50 (Jurkat [4]): 14.9 µM

Compound: CCOC(=O)c1cc([Se]c2ccccc2)c2cc(C)ccc2n1
- Activity (SK-MEL-147 [14]): inactive
- Activity (SK-MEL-147 [1]): Active
- Activity (Jurkat [2]): Active
- EC50 (SK-MEL-147 [3]): 12 µM
- EC50 (Jurkat [4]): 15.3 µM
- Activity (SK-MEL-147 [15]): Active
- Activity (SK-MEL-147 [16]): Active
- Activity (SK-MEL-147 [17]): Active
- Activity (SK-MEL-147 [18]): Active
- Activity (SK-MEL-147 [19]): Active
- Activity (SK-MEL-147 [20]): Active
- Activity (SK-MEL-147 [21]): inactive
- Activity (SK-MEL-147 [22]): inactive
- Activity (SK-MEL [23]): inactive
- Activity (SK-MEL [24]): inactive
- Activity (SK-MEL-147 [25]): Active
- Activity (SK-MEL-147 [26]): Active
- Activity (Rattus norvegicus [27]): Active
- Activity (Rattus norvegicus [28]): Active
- Activity (Rattus norvegicus [29]): inactive
- Activity (Rattus norvegicus [30]): inactive
- Activity (Rattus norvegicus [31]): inactive
- Activity (Rattus norvegicus [32]): inactive
- Activity (Rattus norvegicus [33]): inactive
- Activity (Rattus norvegicus [34]): inactive
- Activity (SK-MEL-147 [35]): Active
- Activity (SK-MEL-147 [36]): inactive
- Activity (SK-MEL-147 [37]): Active
- IC50 (Cathepsin B): Not Active
- IC50 (Procathepsin L): Not Active

Compound: CCOC(=O)c1cc([Te]c2ccccc2)c2cc(OC)ccc2n1
- Activity (SK-MEL-147 [1]): Active
- Activity (Jurkat [2]): Active
- EC50 (SK-MEL-147 [3]): 128 µM
- EC50 (Jurkat [4]): 77.4 µM

Compound: CCOC(=O)c1cc([Se]c2ccc3ccccc3c2)c2cc(OC)ccc2n1
- Activity (SK-MEL-147 [1]): Active
- Activity (Jurkat [2]): Active
- EC50 (SK-MEL-147 [3]): 32.2 µM
- EC50 (Jurkat [4]): 50.7 µM

- IC50 (Cathepsin B; read-out: IC50): 6.86 µM
- IC50 (Procathepsin L; read-out: IC50): 3.69 µM
Compound: CCCCC#Cc1cc(C(=O)OCC)nc2ccc(OC)cc12
- Activity (SK-MEL-147 [14]): Active
- Activity (SK-MEL-147 [1]): Active
- Activity (Jurkat [2]): Active
- EC50 (SK-MEL-147 [3]): 7.2 µM
- EC50 (Jurkat [4]): 15.9 µM
- Activity (SK-MEL-147 [15]): Active
- Activity (SK-MEL-147 [16]): Active
- Activity (SK-MEL-147 [17]): Active
- Activity (SK-MEL-147 [18]): Active
- Activity (SK-MEL-147 [19]): Active
- Activity (SK-MEL-147 [20]): Active
- Activity (SK-MEL-147 [21]): Active
- Activity (SK-MEL-147 [22]): Active
- Activity (SK-MEL [23]): Active
- Activity (SK-MEL [24]): Active
- Activity (SK-MEL-147 [25]): inactive
- Activity (SK-MEL-147 [26]): inactive
- Activity (Rattus norvegicus [27]): Active
- Activity (Rattus norvegicus [28]): Active
- Activity (Rattus norvegicus [29]): Active
- Activity (Rattus norvegicus [30]): Active
- Activity (Rattus norvegicus [31]): Active
- Activity (Rattus norvegicus [32]): Active
- Activity (Rattus norvegicus [33]): Active
- Activity (Rattus norvegicus [34]): inactive
- Activity (SK-MEL-147 [35]): Active
- Activity (SK-MEL-147 [36]): inactive
- Activity (SK-MEL-147 [37]): Active

Reference: ChEMBL document CHEMBL4622851, “Cytotoxicity of 4-substituted quinoline derivatives: Anticancer and antileishmanial potential” (Bioorg Med Chem, 2020)
